In patent US12065436B2, “Cardiac sarcomere inhibitors” (Cytokinetics, Inc., priority 2018, dated 2024):

Biological target: bovine cardiac myofibrils (full-length cardiac myosin ATPase in the native sarcomere) (Bos taurus (Bovine), UniProt Q9BE39)
Experiment: Skinned bovine cardiac myofibril ATPase assay (PK/LDH-coupled)
Format: biochemical
Details: Ca2+ activating to 75% of maximal rate; for CDMF75 IC15: concentration giving 15% inhibition; for IC50: read-out: CDMF75 IC50
How it was run: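 Inhibition of steady-state ATPase read at 340 nm through a PK/LDH-coupled NADH system (0.5 mM NADH, 1.5 mM PEP). Detergent-skinned bovine cardiac myofibrils, 1 mg/mL, were tested at pH 6.8 in PIPES/MgCl2 with 50 μM ATP and calcium adjusted to give pCa50 or pCa75 activation.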

Chain of bovine cardiac myofibrils (full-length cardiac myosin ATPase in the native sarcomere) (Q9BE39 whole entry): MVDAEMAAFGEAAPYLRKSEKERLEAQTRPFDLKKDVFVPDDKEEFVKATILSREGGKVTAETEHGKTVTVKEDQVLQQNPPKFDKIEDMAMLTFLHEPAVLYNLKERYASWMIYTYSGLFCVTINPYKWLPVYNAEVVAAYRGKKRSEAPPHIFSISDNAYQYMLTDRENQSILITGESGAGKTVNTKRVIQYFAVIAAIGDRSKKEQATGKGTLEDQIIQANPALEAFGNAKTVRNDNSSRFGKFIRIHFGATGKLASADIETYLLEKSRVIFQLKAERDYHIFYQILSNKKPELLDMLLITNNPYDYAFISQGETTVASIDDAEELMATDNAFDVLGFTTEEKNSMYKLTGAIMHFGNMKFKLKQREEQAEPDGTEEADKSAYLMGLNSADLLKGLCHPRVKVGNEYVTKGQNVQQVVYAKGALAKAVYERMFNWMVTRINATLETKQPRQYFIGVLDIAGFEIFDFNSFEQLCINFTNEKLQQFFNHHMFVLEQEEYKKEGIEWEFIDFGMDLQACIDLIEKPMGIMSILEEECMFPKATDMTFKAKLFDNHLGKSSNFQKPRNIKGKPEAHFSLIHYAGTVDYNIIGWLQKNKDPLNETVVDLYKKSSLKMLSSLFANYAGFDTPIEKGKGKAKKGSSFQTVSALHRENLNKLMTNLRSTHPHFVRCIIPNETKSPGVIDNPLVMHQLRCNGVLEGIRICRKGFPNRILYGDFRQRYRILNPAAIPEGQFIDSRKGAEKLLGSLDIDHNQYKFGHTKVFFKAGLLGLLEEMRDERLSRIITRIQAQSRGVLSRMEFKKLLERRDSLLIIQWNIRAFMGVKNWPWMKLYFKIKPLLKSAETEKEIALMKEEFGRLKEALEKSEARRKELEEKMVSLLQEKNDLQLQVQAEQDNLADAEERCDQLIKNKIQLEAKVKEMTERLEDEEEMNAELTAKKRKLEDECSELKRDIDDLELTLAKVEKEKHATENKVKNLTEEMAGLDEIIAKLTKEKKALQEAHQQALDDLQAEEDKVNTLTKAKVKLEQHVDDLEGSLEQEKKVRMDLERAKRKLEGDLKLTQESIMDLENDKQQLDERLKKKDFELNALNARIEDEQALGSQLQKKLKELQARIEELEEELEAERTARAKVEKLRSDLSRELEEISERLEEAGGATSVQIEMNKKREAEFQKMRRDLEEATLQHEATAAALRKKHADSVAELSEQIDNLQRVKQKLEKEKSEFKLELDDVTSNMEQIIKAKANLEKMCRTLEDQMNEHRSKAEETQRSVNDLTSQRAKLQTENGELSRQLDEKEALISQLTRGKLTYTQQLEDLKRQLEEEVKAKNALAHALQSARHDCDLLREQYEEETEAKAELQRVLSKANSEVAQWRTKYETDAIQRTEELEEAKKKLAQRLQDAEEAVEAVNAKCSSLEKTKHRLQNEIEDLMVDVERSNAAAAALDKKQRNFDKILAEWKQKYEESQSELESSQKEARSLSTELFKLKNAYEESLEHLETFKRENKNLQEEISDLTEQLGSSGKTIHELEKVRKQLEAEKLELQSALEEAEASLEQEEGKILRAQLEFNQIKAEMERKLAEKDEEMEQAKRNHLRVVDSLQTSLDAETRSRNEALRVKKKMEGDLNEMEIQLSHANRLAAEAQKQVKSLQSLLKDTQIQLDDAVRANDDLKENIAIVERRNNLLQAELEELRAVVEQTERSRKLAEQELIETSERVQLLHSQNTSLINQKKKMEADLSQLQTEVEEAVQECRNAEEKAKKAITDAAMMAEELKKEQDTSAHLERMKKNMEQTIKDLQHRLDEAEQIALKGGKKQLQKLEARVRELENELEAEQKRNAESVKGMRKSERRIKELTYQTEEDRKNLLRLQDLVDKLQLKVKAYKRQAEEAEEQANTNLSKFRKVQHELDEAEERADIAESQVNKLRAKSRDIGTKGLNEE
Chain of bovine cardiac myofibrils (full-length cardiac myosin ATPase in the native sarcomere) (P85100 whole entry partner): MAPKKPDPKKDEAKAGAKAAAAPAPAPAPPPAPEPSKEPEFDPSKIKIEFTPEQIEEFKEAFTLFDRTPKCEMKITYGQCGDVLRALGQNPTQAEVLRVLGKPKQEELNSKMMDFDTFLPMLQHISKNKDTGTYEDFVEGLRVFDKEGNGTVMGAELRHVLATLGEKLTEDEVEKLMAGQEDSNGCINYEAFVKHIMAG
Chain of bovine cardiac myofibrils (full-length cardiac myosin ATPase in the native sarcomere) (Q3SZE5 whole entry partner): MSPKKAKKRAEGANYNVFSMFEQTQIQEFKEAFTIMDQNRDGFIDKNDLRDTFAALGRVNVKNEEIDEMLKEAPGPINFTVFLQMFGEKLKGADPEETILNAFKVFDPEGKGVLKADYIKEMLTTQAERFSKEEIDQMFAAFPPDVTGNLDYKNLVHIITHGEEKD

Row | CDMF75 IC15 [nM] | IC50 [nM] | Compound
1 | 1900 | 8100 | O=C(N[C@@H]1CCc2cc(-c3noc(C(F)F)n3)ccc21)c1ccc(=O)n(CCO)c1 [Compound 656, (R)-N-(5-(5-(difluoromethyl)-1,2,4-oxadiazol-3-yl)-2,3-dihydro-1H-inden-1-yl)-1-(2-hydroxyethyl)-6-oxo-1,6-dihydropyridine-3-carboxamide]
2 | 300 | 700 | C=Cc1cccc(C(=O)N[C@@H]2CCc3cc(-c4noc(CC)n4)ccc32)c1 [Compound 657, (R)-N-(5-(5-ethyl-1,2,4-oxadiazol-3-yl)-2,3-dihydro-1H-inden-1-yl)-3-vinylbenzamide]
3 | 300 | 900 | CCc1nc(-c2ccc3c(c2)CC[C@H]3NC(=O)c2cccc(C=O)c2)no1 [Compound 658, (R)-N-(5-(5-ethyl-1,2,4-oxadiazol-3-yl)-2,3-dihydro-1H-inden-1-yl)-3-formylbenzamide]
4 | 500 | 1700 | CCc1nc(-c2ccc3c(c2)CC[C@H]3NC(=O)c2cccc(CCO)c2)no1 [Compound 659, (R)-N-(5-(5-ethyl-1,2,4-oxadiazol-3-yl)-2,3-dihydro-1H-inden-1-yl)-3-(2-hydroxyethyl)benzamide]
5 | 600 | 2000 | CCc1cc(C(=O)N[C@@H]2CCc3cc(-c4noc(CC)n4)ccc32)ccn1 [Compound 660, (R)-2-ethyl-N-(5-(5-ethyl-1,2,4-oxadiazol-3-yl)-2,3-dihydro-1H-inden-1-yl)isonicotinamide]
6 | 300 | 1100 | O=C(N[C@@H]1CCc2cc(-c3noc(C(F)F)n3)ccc21)c1cccc(CO)c1 [Compound 661, (R)-N-(5-(5-(difluoromethyl)-1,2,4-oxadiazol-3-yl)-2,3-dihydro-1H-inden-1-yl)-3-(hydroxymethyl)benzamide]
7 | 1600 | 7200 | O=C(N[C@@H]1CCc2cc(-c3noc(C(F)F)n3)ccc21)c1cccc(CO)c1F [Compound 662, (R)-N-(5-(5-(difluoromethyl)-1,2,4-oxadiazol-3-yl)-2,3-dihydro-1H-inden-1-yl)-2-fluoro-3-(hydroxymethyl)benzamide]
8 | 2300 | 19600 | O=C(N[C@@H]1CCc2cc(-c3noc(C(F)F)n3)ccc21)c1cc(CO)ccc1F [Compound 663, (R)-N-(5-(5-(difluoromethyl)-1,2,4-oxadiazol-3-yl)-2,3-dihydro-1H-inden-1-yl)-2-fluoro-5-(hydroxymethyl)benzamide]
9 | 400 | 1800 | O=C(N[C@@H]1CCc2cc(-c3noc(C(F)F)n3)ccc21)c1ccnc(CO)c1 [Compound 665, (R)-N-(5-(5-(difluoromethyl)-1,2,4-oxadiazol-3-yl)-2,3-dihydro-1H-inden-1-yl)-2-(hydroxymethyl)isonicotinamide]
10 | 800 | 3400 | O=C(N[C@@H]1CCc2cc(-c3noc(C(F)F)n3)ccc21)c1cc(CO)ccn1 [Compound 666, (R)-N-(5-(5-(difluoromethyl)-1,2,4-oxadiazol-3-yl)-2,3-dihydro-1H-inden-1-yl)-4-(hydroxymethyl)picolinamide]
11 | 900 | 3700 | O=C(N[C@@H]1CCc2cc(-c3noc(C(F)F)n3)ccc21)c1cc(CO)ccn1 [Compound 667, (R)-N-(5-(5-(difluoromethyl)-1,2,4-oxadiazol-3-yl)-2,3-dihydro-1H-inden-1-yl)-4-(hydroxymethyl)picolinamide]
12 | 600 | 2200 | COCc1nc(-c2ccc3c(c2)CC[C@H]3NC(=O)c2cccc(CO)c2)no1 [Compound 668, (R)-3-(hydroxymethyl)-N-(5-(5-(methoxymethyl)-1,2,4-oxadiazol-3-yl)-2,3-dihydro-1H-inden-1-yl)benzamide]
13 | 500 | 2300 | COCc1nc(-c2ccc3c(c2)CC[C@H]3NC(=O)c2cccc(CO)c2)no1 [Compound 669, (R)-3-(hydroxymethyl)-N-(5-(5-(methoxymethyl)-1,2,4-oxadiazol-3-yl)-2,3-dihydro-1H-inden-1-yl)benzamide]
14 | 5800 | 26600 | COCc1nc(-c2ccc3c(c2)CC[C@H]3NC(=O)c2cccc(CO)c2F)no1 [Compound 670, (R)-2-fluoro-3-(hydroxymethyl)-N-(5-(5-(methoxymethyl)-1,2,4-oxadiazol-3-yl)-2,3-dihydro-1H-inden-1-yl)benzamide]
15 | 6500 | 30200 | COCc1nc(-c2ccc3c(c2)CC[C@H]3NC(=O)c2cc(CO)ccc2F)no1 [Compound 671, (R)-2-fluoro-5-(hydroxymethyl)-N-(5-(5-(methoxymethyl)-1,2,4-oxadiazol-3-yl)-2,3-dihydro-1H-inden-1-yl)benzamide]
16 | 3200 | 13700 | COCc1nc(-c2ccc3c(c2)CC[C@H]3NC(=O)c2cc(CO)ccn2)no1 [Compound 672, (R)-4-(hydroxymethyl)-N-(5-(5-(methoxymethyl)-1,2,4-oxadiazol-3-yl)-2,3-dihydro-1H-inden-1-yl)picolinamide]
17 | 2800 | 13000 | COCc1nc(-c2ccc3c(c2)CC[C@H]3NC(=O)c2cc(CO)ccn2)no1 [Compound 673, (R)-4-(hydroxymethyl)-N-(5-(5-(methoxymethyl)-1,2,4-oxadiazol-3-yl)-2,3-dihydro-1H-inden-1-yl)picolinamide]
18 | 1900 | 7400 | O=C(N[C@@H]1CCc2cc(-c3noc(C(F)F)n3)ccc21)c1cc(O)no1 [Compound 674, (R)-N-(5-(5-(difluoromethyl)-1,2,4-oxadiazol-3-yl)-2,3-dihydro-1H-inden-1-yl)-3-hydroxyisoxazole-5-carboxamide]
19 | 800 | 2700 | Cc1c(C(=O)N[C@@H]2CCc3cc(-c4noc(C(F)F)n4)ccc32)cnn1CCO [Compound 675, (R)-N-(5-(5-(difluoromethyl)-1,2,4-oxadiazol-3-yl)-2,3-dihydro-1H-inden-1-yl)-1-(2-hydroxyethyl)-5-methyl-1H-pyrazole-4-carboxamide]
20 | 500 | 1800 | Cc1ncc(C(=O)N[C@@H]2CCc3cc(-c4noc(C(F)F)n4)ccc32)s1 [Compound 676, (R)-N-(5-(5-(difluoromethyl)-1,2,4-oxadiazol-3-yl)-2,3-dihydro-1H-inden-1-yl)-2-methylthiazole-5-carboxamide]
21 | 300 | 900 | Cc1nocc1C(=O)N[C@@H]1CCc2cc(-c3noc(C(F)F)n3)ccc21 [Compound 677, (R)-N-(5-(5-(difluoromethyl)-1,2,4-oxadiazol-3-yl)-2,3-dihydro-1H-inden-1-yl)-3-methylisoxazole-4-carboxamide]
22 | 700 | 2300 | Cc1ncc(C(=O)N[C@@H]2CCc3cc(-c4noc(C(F)F)n4)ccc32)n1C [Compound 678, (R)-N-(5-(5-(difluoromethyl)-1,2,4-oxadiazol-3-yl)-2,3-dihydro-1H-inden-1-yl)-1,2-dimethyl-1H-imidazole-5-carboxamide]
23 | 800 | 3000 | Cc1cc(C(=O)N[C@@H]2CCc3cc(-c4noc(C(F)F)n4)ccc32)on1 [Compound 679, (R)-N-(5-(5-(difluoromethyl)-1,2,4-oxadiazol-3-yl)-2,3-dihydro-1H-inden-1-yl)-3-methylisoxazole-5-carboxamide]
24 | 500 | 1700 | COc1cc(C(=O)N[C@@H]2CCc3cc(-c4noc(C(F)F)n4)ccc32)on1 [Compound 680, (R)-N-(5-(5-(difluoromethyl)-1,2,4-oxadiazol-3-yl)-2,3-dihydro-1H-inden-1-yl)-3-methoxyisoxazole-5-carboxamide]
25 | 1300 | 5900 | Cc1cnc(C(=O)N[C@@H]2CCc3cc(-c4noc(C(F)F)n4)ccc32)o1 [Compound 681, (R)-N-(5-(5-(difluoromethyl)-1,2,4-oxadiazol-3-yl)-2,3-dihydro-1H-inden-1-yl)-5-methyloxazole-2-carboxamide]
26 | 400 | 1600 | O=C(N[C@@H]1CCc2cc(-c3noc(C(F)F)n3)ccc21)c1ocnc1C(F)(F)F [Compound 682, (R)-N-(5-(5-(difluoromethyl)-1,2,4-oxadiazol-3-yl)-2,3-dihydro-1H-inden-1-yl)-4-(trifluoromethyl)oxazole-5-carboxamide]
27 | 1100 | 4600 | Cc1cc(C(=O)N[C@@H]2CCc3cc(-c4noc(C(F)F)n4)ccc32)ncn1 [Compound 683, (R)-N-(5-(5-(difluoromethyl)-1,2,4-oxadiazol-3-yl)-2,3-dihydro-1H-inden-1-yl)-6-methylpyrimidine-4-carboxamide]
28 | 1100 | 5000 | COc1cc(C(=O)N[C@@H]2CCc3cc(-c4noc(C(F)F)n4)ccc32)ccn1 [Compound 684, (R)-N-(5-(5-(difluoromethyl)-1,2,4-oxadiazol-3-yl)-2,3-dihydro-1H-inden-1-yl)-2-methoxyisonicotinamide]
29 | 700 | 2600 | O=C(N[C@@H]1CCc2cc(-c3noc(C(F)F)n3)ccc21)c1ccnc(C(F)F)c1 [Compound 685, (R)-2-(difluoromethyl)-N-(5-(5-(difluoromethyl)-1,2,4-oxadiazol-3-yl)-2,3-dihydro-1H-inden-1-yl)isonicotinamide]
30 | 900 | 3100 | Cc1nn(CCO)cc1C(=O)N[C@@H]1CCc2cc(-c3noc(C(F)F)n3)ccc21 [Compound 686, (R)-N-(5-(5-(difluoromethyl)-1,2,4-oxadiazol-3-yl)-2,3-dihydro-1H-inden-1-yl)-1-(2-hydroxyethyl)-3-methyl-1H-pyrazole-4-carboxamide]
